From article PMC6284238 (Neuron, 2017) come the findings set out here.

The experiment has as its target T1, zebrafish SARM1-TIR (Danio rerio, UniProt F1QWA8).
T1 sequence (F1QWA8 552-695 limits assumed): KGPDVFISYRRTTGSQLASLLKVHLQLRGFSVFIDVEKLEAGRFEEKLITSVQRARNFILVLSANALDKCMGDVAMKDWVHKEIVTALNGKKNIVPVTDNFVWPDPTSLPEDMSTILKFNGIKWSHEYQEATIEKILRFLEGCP
Briefly: NADase assay with HPLC, purified bacterial protein. In kind it is biochemical.

Consider `NC(=O)c1ccc[n+]([C@@H]2O[C@H](COP(=O)([O-])OP(=O)(O)OC[C@H]3O[C@@H](n4cnc5c(N)ncnc54)[C@H](O)[C@@H]3O)[C@@H](O)[C@H]2O)c1` [NAD^+], for which the “NADase assay with HPLC, purified bacterial protein” value is “bacterially expressed mouse, zebrafish, and Drosophila SARM1-TIR domains also degrade NAD^+ in vitro”.
